# Patent publication US20230357222A1, “SELECTIVE SMALL MOLECULE DEGRADERS OF CEREBLON” (DANA-FARBER CANCER INSTITUTE, INC., priority 2020, published 2023)
# Legend:
# Format in all cases: cell-based
# [1] = molecular target: T1, cereblon (CRBN) (Homo sapiens, UniProt Q96SW2); assay: Proteomic analysis (TMT LC-MS3) of protein abundance in cells; details: MM1.s cells, 50 nM, 6 hours
# T1 construct: endogenous in cells; host or cells: MM1.s cells (also HEK293T, MOLT4, SK-N-DZ and Kelly cells for compound 1)
# T1 sequence (Q96SW2 whole entry): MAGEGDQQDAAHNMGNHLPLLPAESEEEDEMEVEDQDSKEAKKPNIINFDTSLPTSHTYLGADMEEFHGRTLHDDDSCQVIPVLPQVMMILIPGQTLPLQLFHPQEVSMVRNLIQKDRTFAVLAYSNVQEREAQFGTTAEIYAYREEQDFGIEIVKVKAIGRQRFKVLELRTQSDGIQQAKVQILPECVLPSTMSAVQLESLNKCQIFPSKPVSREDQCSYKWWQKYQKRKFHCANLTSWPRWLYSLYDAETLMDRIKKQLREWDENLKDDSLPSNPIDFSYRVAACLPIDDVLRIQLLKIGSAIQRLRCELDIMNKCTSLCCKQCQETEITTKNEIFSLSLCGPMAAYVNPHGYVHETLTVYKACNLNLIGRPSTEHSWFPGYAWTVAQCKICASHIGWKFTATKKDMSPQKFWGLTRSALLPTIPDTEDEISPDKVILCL
# Protocol: MM1.s cells were treated with DMSO or 50 nM of bispecific compound 1 or 6 in biological triplicates for 6 hours and cells harvested by centrifugation. Lysis buffer (8 M Urea, 50 mM NaCl, 50 mM 4-(2hydroxyethyl)-1-piperazineethanesulfonic acid (EPPS) pH 8.5, Protease and Phosphatase inhibitors from Roche®) was added to the cell pellets and homogenized by 20 passes through a 21 gauge (1.25 in. long) needle to achieve a cell lysate with a protein concentration between 1-4 mg mL-1. A micro-BCA assay (Pierce™) was used to determine the final protein concentration in the cell lysate. 200 μg of protein for each sample were reduced and alkylated as described in Donovan et al., Elife 7:e38430 (2018).
# Proteins were precipitated using methanol/chloroform. In brief, four volumes of methanol were added to the cell lysate, followed by one volume of chloroform, and finally three volumes of water. […]
# Anhydrous ACN was added to each peptide sample to a final concentration of 30% v/v, and labeling was induced with the addition of TMT reagent to each sample at a ratio of 1:4 peptide:TMT label. […] The sample channels were combined at a 1:1:1:1:1:1:1:1:1:1 ratio, desalted using C18 solid phase extraction cartridges (Waters®) and analyzed by LC-MS for channel ratio comparison. Samples were then combined using the adjusted volumes determined in the channel ratio analysis and dried down in a speed vacuum. […]
# [2] = molecular target: T1, cereblon (CRBN); assay: CRBN degradation in MM1.s cells, time course experiment, immunoblot; details: 50-nM dose
# Protocol: (§1) MM1.S cells were generously provided by James Bradner (Dana-Farber Cancer Institute (DFCI), Boston, MA). MM1.S cells were cultured in Roswell Park Memorial Institute (RPMI)-1640 media containing L-glutamine, supplemented with 10% fetal bovine serum (FBS) and 1% penicillin/streptomycin. Mycoplasma testing was performed on a monthly basis and all lines were negative.
# (§2) Cells were washed with ice cold phosphate-buffered saline (PBS) before being lysed with Cell Lysis Buffer (Cell Signaling Technology®) supplemented with protease and phosphatase inhibitor cocktails (Roche®) at 4° C. for 15 minutes. The cell lysate was vortexed before being centrifuged at 14,000×g for 20 min at 4° C. Protein in cell lysate was quantified by bicinchoninic acid (BCA) assay (Pierce™). Primary antibodies used in this study include CDK9 (Cell Signaling Technology®, 2316S), CKlα (Abcam®, ab206652), CRBN (Novus Biologicals®, NBP1-91810), eRF3/GSPT1 (Abcam®, ab49878), IKZF1 (Ikaros) (Cell Signaling Technology®, 5443S), IKZF3 (Aiolos) (Cell Signaling Technology®, 15103S), VHL (Cell Signaling Technology®, 68547S), and vinculin (Abcam®, ab130007). Blot quantification was performed using Image Studio 4.0 software, normalizing to loading controls.
# The experimental protocol is set forth above in Example 7.
# [3] = molecular target: T1, cereblon (CRBN); assay: CRBN degradation in MM1.s cells, 4-h dose titration, immunoblot; details: 4-h dose titration treatment
# Protocol: as §1, §2
proteins significantly degraded by proteomic analysis (selectivity) [1],earliest time at which CRBN degradation is seen after treatment [2] [h],concentration at which virtually complete degradation of CRBN is seen [3],SMILES,CRBN degrader potency and selectivity (in words) [3]
only CRBN was significantly degraded,1,around 50 nM,"Cc1ncsc1-c1ccc(CNC(=O)[C@@H]2C[C@@H](O)CN2C(=O)[C@@H](NC(=O)CCCCCCCCCCOc2cccc3c2C(=O)N(C2CCC(=O)NC2=O)C3=O)C(C)(C)C)cc1 (stereo partly drawn) [Compound 1, (2S,4R)-1-((2S)-2-(11-((2-(2,6-dioxopiperidin-3-yl)-1,3-dioxoisoindolin-4-yl)oxy)undecanamido)-3,3-dimethylbutanoyl)-4-hydroxy-N-(4-(4-methylthiazol-5-yl)benzyl)pyrrolidine-2-carboxamide]",highly potent and selective degraders of CRBN
only CRBN was significantly degraded,1,around 50 nM,"Cc1ncsc1-c1ccc([C@H](C)NC(=O)[C@@H]2C[C@@H](O)CN2C(=O)[C@@H](NC(=O)CCCCCCCCCCOc2cccc3c2C(=O)N(C2CCC(=O)NC2=O)C3=O)C(C)(C)C)cc1 (stereo partly drawn) [Compound 6, (2S,4R)-1-((2S)-2-(11-((2-(2,6-Dioxopiperidin-3-Yl)-1,3-Dioxoisoindolin-4-Yl)Oxy)Undecanamido)-3,3-Dimethylbutanoyl)-4-Hydroxy-N-((S)-1-(4-(4-Methylthiazol-5-Yl)Phenyl)Ethyl)Pyrrolidine-2-Carboxamide]",highly potent and selective degraders of CRBN
